This data set deals with PC-3 xenografts. Description: Ex vivo biodistribution in PC-3 xenograft bearing mice. The arrangement: species or system BALB/C nu/nu mice. The note with it: mice bearing PC-3 xenografts, 4 h pi. An excerpt: Animal studies were in compliance with the European guidelines for laboratory animal protection. BALB/C nu/nu mice were used and the experimental protocols were approved by the ethics committee for animal research in Uppsala (Sweden); permit number 00473/21.
The biodistribution profiles and tumor targeting of maSSS-/SES-PEG2-RM26, labeled with Re-188 or Tc-99 m, were compared head-to-head in the same batch of animals, inoculated with the same PC-3 cells-suspension. After acclimatization, animals were inoculated subcutaneously (right hind leg) with 7 × 10^6 freshly harvested PC-3 cells per animal, in PBS. After approximately four weeks solid tumors were present at the inoculation sites and the animals were randomly divided in groups of four.
For the ex vivo biodistribution experiments animals were injected via the tail vein with 50 pmol (120 kBq for Re-188 and 60 kBq for Tc-99 m) of the radiopeptide under evaluation, in 100 µl solution in PBS supplemented with 1% w/v BSA. Animals were euthanized at 1 h and 4 h post injection (pi) and tissues / organs of interest and tumors were collected, weighted and their radioactivity content was measured on a gamma counter. Each group comprised by four animals (n = 4).
Statistical analysis was performed using GraphPad Prism, employing a two-way ANOVA test with Tuckey’s posthoc analysis.

The structures appear in SMILES notation.

Experimental findings from PMC11748620, “Evaluation of maSSS/maSES-PEG2-RM26 for their potential therapeutic use after labeling with Re-188. Could their [^99mTc]Tc-labeled counterparts be used to estimate dosimetry?” (EJNMMI Radiopharmacy and Chemistry, 2025) are described below.

As for `CC(C)C[C@H](NC(=O)C[C@H](O)[C@H](CC(C)C)NC(=O)[C@H](Cc1c[nH]cn1)NC(=O)CNC(=O)[C@@H](NC(=O)[C@H](C)NC(=O)[C@H](Cc1c[nH]c2ccccc12)NC(=O)[C@H](CCC(N)=O)NC(=O)[C@@H](Cc1ccccc1)NC(=O)COCCOCCNC(=O)[C@H](CO)NC(=O)[C@H](CCC(=O)O)NC(=O)[C@H](CO)NC(=O)CS)C(C)C)C(N)=O` [maSES-PEG2-RM26, mercaptoacetyl-Ser-Glu-Ser-PEG2-RM26], the “ratio of activity uptake in caecum, Re-188 over Tc-99 m” value was determined as 2.3 fold.

On to `CC(C)C[C@H](NC(=O)C[C@H](O)[C@H](CC(C)C)NC(=O)[C@H](Cc1c[nH]cn1)NC(=O)CNC(=O)[C@@H](NC(=O)[C@H](C)NC(=O)[C@H](Cc1c[nH]c2ccccc12)NC(=O)[C@H](CCC(N)=O)NC(=O)[C@@H](Cc1ccccc1)NC(=O)COCCOCCNC(=O)[C@H](CO)NC(=O)[C@H](CO)NC(=O)[C@H](CO)NC(=O)CS)C(C)C)C(N)=O` [maSSS-PEG2-RM26, mercaptoacetyl-Ser-Ser-Ser-PEG2-RM26], for which the “ratio of activity uptake in caecum, Re-188 over Tc-99 m” value is 1.4 fold.
